In the supplement of paper PMC10307832:

What was measured:
Test in all cases: relative viability (nuclei count vs DMSO), 5 days (fraction); higher = more cells survive
[1] = compound: NS(=O)(=O)OC[C@@H]1C[C@@H](n2ccc3c(N[C@H]4CCc5ccccc54)ncnc32)C[C@@H]1O [MLN4924] + CC(=O)Nc1cccc(-n2c(=O)n(C3CC3)c(=O)c3c(Nc4ccc(I)cc4F)n(C)c(=O)c(C)c32)c1 [Trametinib] (partner 0.02 µM)
How it was run: (§1)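 Relative viability divides the nuclei count in treated wells by that in vehicle wells. Lung cancer cell lines were seeded in 1536-well plates, dosed by pin tool the next day, and fixed and stained after 5 days in one step with final 0.05% Triton X-100, 1% formaldehyde and 1 ug/ml Hoechst. Dosing was a single drug or a fixed anchor-drug dose plus five library-drug doses (not always all listed) in √10 steps, and values are medians of duplicate plates imaged at 4×.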

[2] = compound: C1CC(C1)(C(=O)O)C(=O)O.[NH2-].[NH2-].[Pt+2] [Carboplatin] + Nc1ncn([C@H]2C[C@H](O)[C@@H](CO)O2)c(=O)n1 [Decitabine] (partner 2 µM)
How it was run: as §1

[3] = compound: CC[C@H](C)N1C=C(C2=C(C=C(C=C21)C3=CN=C(C=C3)N4CCNCC4)C(=O)NCC5=C(C=C(NC5=O)C)C)C [GSK126] + Cc1nc(Nc2ncc(C(=O)Nc3c(C)cccc3Cl)s2)cc(N2CCN(CCO)CC2)n1 [Dasatinib] (partner 0.075 µM)
How it was run: as §1

[4] = compound: NS(=O)(=O)OC[C@@H]1C[C@@H](n2ccc3c(N[C@H]4CCc5ccccc54)ncnc32)C[C@@H]1O [MLN4924] + CC(C)C[C@H](NC(=O)[C@H](Cc1ccccc1)NC(=O)c1cnccn1)B(O)O [Bortezomib] (partner 0.002 µM)
How it was run: as §1

Cell Line | relative viability ([1]; first compound 0.04 µM) | relative viability ([1]; first compound 0.1265 µM) | relative viability ([1]; first compound 0.4 µM) | relative viability ([1]; first compound 1.265 µM) | relative viability ([1]; first compound 4 µM) | relative viability ([2]; first compound 0.08 µM) | relative viability ([2]; first compound 0.253 µM) | relative viability ([2]; first compound 0.8 µM) | relative viability ([2]; first compound 2.53 µM) | relative viability ([2]; first compound 8 µM) | relative viability ([3]; first compound 0.08 µM) | relative viability ([3]; first compound 0.253 µM) | relative viability ([3]; first compound 0.8 µM) | relative viability ([3]; first compound 2.53 µM) | relative viability ([3]; first compound 8 µM) | relative viability ([4]; first compound 0.04 µM) | relative viability ([4]; first compound 0.1265 µM) | relative viability ([4]; first compound 0.4 µM) | relative viability ([4]; first compound 1.265 µM) | relative viability ([4]; first compound 4 µM)
NCI-H2405 | 0.882 | 0.893 | 0.621 | 0.292 | 0.254 | 0.705 | 0.784 | 0.809 | 0.659 | 0.442 | 0.203 | 0.207 | 0.188 | 0.19 | 0.189 | 0.935 | 0.957 | 0.639 | 0.266 | 0.283
NCI-H1915 | 0.346 | 0.39 | 0.403 | 0.261 | 0.167 | 0.264 | 0.258 | 0.249 | 0.23 | 0.258 | 0.3 | 0.3 | 0.34 | 0.347 | 0.328 | 0.982 | 0.941 | 0.815 | 0.22 | 0.187
NCI-H650 | 0.894 | 0.76 | 0.574 | 0.201 | 0.176 | 0.308 | 0.329 | 0.344 | 0.328 | 0.246 | 0.468 | 0.493 | 0.432 | 0.39 | 0.455 | 0.439 | 0.456 | 0.233 | 0.179 | 0.202
NCI-H1650 | 0.597 | 0.32 | 0.232 | 0.131 | 0.156 | 0.426 | 0.498 | 0.425 | 0.365 | 0.308 | 0.349 | 0.333 | 0.284 | 0.281 | 0.338 | 0.226 | 0.194 | 0.172 | 0.182 | 0.177
NCI-H596 | 0.799 | 0.833 | 0.727 | 0.649 | 0.443 | 1.16 | 1.13 | 0.986 | 0.958 | 0.629 | 0.692 | 0.537 | 0.633 | 0.887 | 0.594 | 1.08 | 1.02 | 0.709 | 0.885 | 0.974
NCI-H2087 | 0.23 | 0.217 | 0.291 | 0.129 | 0.0965 | 0.242 | 0.28 | 0.307 | 0.227 | 0.237 | 1.14 | 0.707 | 0.856 | 0.78 | 0.908 | 0.746 | 0.717 | 0.468 | 0.151 | 0.154
RERF-LC-KJ | 0.8 | 0.66 | 0.365 | 0.215 | 0.203 | 0.627 | 0.665 | 0.646 | 0.574 | 0.422 | 0.883 | 0.886 | 0.756 | 0.717 | 0.703 | 0.874 | 0.828 | 0.244 | 0.24 | 0.28
NCI-H2126 | 0.576 | 0.563 | 0.484 | 0.329 | 0.243 | 0.607 | 0.573 | 0.544 | 0.59 | 0.51 | 0.656 | 0.661 | 0.644 | 0.671 | 0.494 | 1.17 | 1.16 | 0.907 | 0.392 | 0.348
SK-LU-1 | 0.556 | 0.652 | 0.347 | 0.269 | 0.234 | 0.719 | 0.677 | 0.625 | 0.586 | 0.46 | 0.213 | 0.231 | 0.189 | 0.199 | 0.173 | 0.856 | 0.866 | 0.293 | 0.187 | 0.28
HARA | 0.671 | 0.79 | 0.357 | 0.114 | 0.111 | 0.681 | 0.439 | 0.549 | 0.448 | 0.469 | 0.3 | 0.281 | 0.226 | 0.262 | 0.241 | 0.918 | 0.516 | 0.218 | 0.101 | 0.0858
EPLC-272H | 0.339 | 0.333 | 0.0863 | 0.147 | 0.126 | 0.402 | 0.403 | 0.361 | 0.366 | 0.355 | 0.456 | 0.375 | 0.321 | 0.404 | 0.327 | 0.808 | 0.927 | 0.131 | 0.163 | 0.177
COR-L 105 | 0.433 | 0.417 | 0.422 | 0.3 | 0.339 | 0.648 | 0.611 | 0.687 | 0.515 | 0.398 | 0.356 | 0.331 | 0.342 | 0.288 | 0.398 | 0.629 | 0.396 | 0.252 | 0.242 | 0.41
NCI-H727 | 0.442 | 0.454 | 0.403 | 0.358 | 0.365 | 1.12 | 0.956 | 0.882 | 0.935 | 0.861 | 0.353 | 0.36 | 0.39 | 0.416 | 0.348 | 0.624 | 0.512 | 0.313 | 0.267 | 0.225
EKVX | 0.314 | 0.349 | 0.319 | 0.244 | 0.193 | 0.4 | 0.331 | 0.389 | 0.307 | 0.283 | 0.523 | 0.309 | 0.543 | 0.589 | 0.508 | 0.806 | 0.711 | 0.475 | 0.236 | 0.135
NCI-H1437 | 0.547 | 0.483 | 0.502 | 0.226 | 0.218 | 0.508 | 0.556 | 0.529 | 0.508 | 0.464 | 0.392 | 0.368 | 0.416 | 0.441 | 0.349 | 0.437 | 0.448 | 0.443 | 0.148 | 0.115
PC-3 [JPC-3] | 0.625 | 0.727 | 0.495 | 0.538 | 0.374 | 0.835 | 0.75 | 0.795 | 0.734 | 0.7 | 1.12 | 0.997 | 0.997 | 1.02 | 0.978 | 0.857 | 0.819 | 0.573 | 0.328 | 0.282
